According to patent publication US6472348B1, “Pyridone derivatives and herbicides” (Kumiai Chemical Industry Co., Ltd., priority 1996, dated 2002):

Key:
[1] = test system: common lambsquarters (Ch); assay: Test Example 4: crop plant selectivity by upland field soil treatment (cotton), herbicidal effects; type: in vivo; design: scale not given here; conditions: evaluated 21st day after application
Outline: (§1)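 Upland soil treatment: crop and weed seeds in sand pots under a soil cover, compound applied to soil, greenhouse-grown, rated visually 21 d later.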

[2] = test system: pale smartweed (Po); assay: as above; type: in vivo; design: scale not given here; conditions: evaluated 21st day after application
Outline: as §1

[3] = test system: China jute (Ab); assay: as above; type: in vivo; design: scale not given here; conditions: evaluated 21st day after application
Outline: as §1

[4] = test system: slender amaranth (Am); assay: as above; type: in vivo; design: scale not given here; conditions: evaluated 21st day after application
Outline: as §1

[5] = test system: corn (Ze); assay: Test Example 11: crop plant selectivity by upland field foliage treatment (corn), phytotoxicity; conditions: upland field foliage treatment, 14th day after treatment
Outline: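 Corn with pale smartweed, slender amaranth, common lambsquarters and China jute sown in sand-filled pots and grown 2 weeks in a greenhouse before foliage treatment. Herbicidal effect and crop phytotoxicity scored on day 14 after treatment against a rating standard.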

[6] = test system: common lambsquarters (Ch); assay: Test Example 2: herbicidal effects by upland field soil treatment; type: in vivo; conditions: 100 g of the active ingredient per 10 ares;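 note: grade of growth control; 5 = at least 90%; 4 = 70 to 90%; 3 = 50 to 70%; 2 = 30 to 50%; 1 = 10 to 30%; 0 = under 10%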
Source text: (§2) (Test on Herbicidal Effects by Upland Field Soil Treatment)

[7] = test system: pale smartweed (Po); assay: as above; type: in vivo; conditions: 100 g of the active ingredient per 10 ares
Source text: as §2

[8] = test system: barnyardgrass (Ec); assay: as above; type: in vivo; conditions: 100 g of the active ingredient per 10 ares;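 note: grade of growth control; 5 = at least 90%; 4 = 70 to 90%; 3 = 50 to 70%; 2 = 30 to 50%; 1 = 10 to 30%; 0 = under 10%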
Source text: as §2

[9] = test system: rice flatsedge (Ci); assay: as above; type: in vivo; conditions: 100 g of the active ingredient per 10 ares;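 note: grade of growth control; 5 = at least 90%; 4 = 70 to 90%; 3 = 50 to 70%; 2 = 30 to 50%; 1 = 10 to 30%; 0 = under 10%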
Source text: as §2

[10] = 21st day after the application, index 0-5 of Table 47
[11] = evaluated on the 21st day after application

Row | Compound | Herbicidal effects Ch ([1]; dose 1.6 g ai/10 a) | Herbicidal effects Ch ([1]; dose 6.3 g ai/10 a) | Herbicidal effects Po ([2]; dose 1.6 g ai/10 a) | Herbicidal effects Po ([2]; dose 6.3 g ai/10 a) | Herbicidal effects Ab ([3]; dose 1.6 g ai/10 a) | Herbicidal effects Ab ([3]; dose 6.3 g ai/10 a) | Herbicidal effects Am ([4]; dose 1.6 g ai/10 a) | Herbicidal effects Am ([4]; dose 6.3 g ai/10 a) | Phytotoxicity Ze ([5]; dose 1.6 g ai/10a) | Herbicidal effects Ch [6, 10] | Herbicidal effects Po [7, 10] | Herbicidal effects Ec [8, 10] | Herbicidal effects Ci [9, 10] | Herbicidal effects Ch [6, 11] | Herbicidal effects Po [7, 11] | Herbicidal effects Ec [8, 11] | Herbicidal effects Ci [9, 11] | Phytotoxicity Ze ([5]; dose 0.1 g ai/10a)
1 | CON=Cc1cc(-c2ccc(C(F)(F)F)n(C)c2=O)c(F)cc1Cl [Compound No. 1-72, 5-(1-methyl-6-trifluoromethyl-2(1H)-pyridon-3-yl)-2-chloro-4-fluorobenzaldehydeoxime-O-methyl ether] | 5 | 5 | 5 | 5 | 5 | 5 | 5 | 5 | 2 | 5 | 5 | 5 | 5 | – | – | – | – | –
2 | Cn1c(C(F)(F)F)ccc(-c2cc(C#N)c(Cl)cc2F)c1=O [Compound No. 1-119, 3-(4-chloro-5-cyano-2-fluorophenyl)-1-methyl-6-trifluoromethyl-2(1H)-pyridone] | – | 5 | – | 5 | – | 5 | – | 5 | 2 | 5 | 5 | 5 | 5 | – | – | – | – | –
3 | CCCC(=O)c1cc(-c2ccc(C(F)(F)F)n(C)c2=O)c(F)cc1Cl [Compound No. 1-194, 3-[4-chloro-2-fluoro-5-(1-oxobutyl)phenyl]-1-methyl-6-trifluoromethyl-2(1H)-pyridone] | – | 5 | – | 5 | – | 5 | – | 5 | 1 | – | – | – | – | 5 | 5 | 5 | 5 | –
4 | C#CCN1C(=O)COc2cc(F)c(-c3ccc(C(F)(F)F)n(C)c3=O)cc21 [Compound No. 2-1, 3-[7-fluoro-2,3-dihydro-4-(2-propynyl)-1,4-benzoxazin-3-on-6-yl]-1-methyl-6-trifluoromethyl-2(1H)-pyridone] | 5 | – | 5 | – | 5 | – | 5 | – | – | – | – | – | – | 5 | 5 | 5 | 5 | 0
5 | COCc1cc2c(-c3ccc(C(F)(F)F)n(C)c3=O)c(F)cc(Cl)c2o1 [Compound No. 4-4, 3-(7-chloro-5-fluoro-2-methoxymethylbenzofuran-4-yl)-1-methyl-6-trifluoromethyl-2-(1H)-pyridone] | 5 | 5 | 5 | 5 | 5 | 5 | 5 | 5 | 2 | – | – | – | – | 5 | 5 | 5 | 5 | –
6 | Cn1c(C(F)(F)F)ccc(-c2c(F)cc(Cl)c3oc(CO)cc23)c1=O [Compound No. 4-5, 3-(7-chloro-5-fluoro-2-hydroxymethylbenzofuran-4-yl)-1-methyl-6-trifluoromethyl-2-(1H)-pyridone] | – | 5 | – | 5 | – | 5 | – | 5 | 1 | – | – | – | – | 5 | 5 | 5 | 5 | –
7 | Cn1c(C(F)(F)F)ccc(-c2c(F)cc(Cl)c3occc23)c1=O [Compound No. 4-28, 3-(7-chloro-5-fluorobenzofuran-4-yl)-1-methyl-6-trifluoromethyl-2-(1H)-pyridone] | 5 | 5 | 5 | 5 | 5 | 5 | 5 | 5 | 2 | – | – | – | – | 5 | 5 | 4 | 5 | –
